Patent US7989464B2, “mGluR1 antagonists as therapeutic agents” (Schering Corporation, priority 2004, dated 2011)

What follows are compounds tested against T1, hmGluR1 receptor (Homo sapiens, UniProt Q13255) (assay: IC50 determination: intracellular calcium mobilization (FLIPR) upon Quisqualate stimulation in CHO cells stably expressing hmGluR1). Settings: against Quisqualate 1 μM (EC80), FLIPR calcium mobilization, read-out: IC50 Class.
T1 construct: expressed in transfected cells
Type: cell-based
Procedure: A CHO cell line stably expressing hmGluR1 receptor was established. One day prior to assay, cells were split in growth media at concentration of 50,000 cells/well in a volume of 100 μl and seeded into black clear-bottom 96-well plates. After two to six hours, when cells were well attached to the plate, growth medium was replaced with assay medium (100 μL) consisting of DMEM high glucose, supplemented with GPT (1 U/mL) and Sodium pyruvate, 1 mM. Following overnight incubation, medium was discarded and cells were loaded for 2 h with dye from the Calcium 3 Assay Reagent Kit (Molecular Devices, # R8033), prepared according to manufacturers' instructions. […] Test compounds were added 10 minutes before Quisqualate.

T1 sequence (Q13255 19-1194): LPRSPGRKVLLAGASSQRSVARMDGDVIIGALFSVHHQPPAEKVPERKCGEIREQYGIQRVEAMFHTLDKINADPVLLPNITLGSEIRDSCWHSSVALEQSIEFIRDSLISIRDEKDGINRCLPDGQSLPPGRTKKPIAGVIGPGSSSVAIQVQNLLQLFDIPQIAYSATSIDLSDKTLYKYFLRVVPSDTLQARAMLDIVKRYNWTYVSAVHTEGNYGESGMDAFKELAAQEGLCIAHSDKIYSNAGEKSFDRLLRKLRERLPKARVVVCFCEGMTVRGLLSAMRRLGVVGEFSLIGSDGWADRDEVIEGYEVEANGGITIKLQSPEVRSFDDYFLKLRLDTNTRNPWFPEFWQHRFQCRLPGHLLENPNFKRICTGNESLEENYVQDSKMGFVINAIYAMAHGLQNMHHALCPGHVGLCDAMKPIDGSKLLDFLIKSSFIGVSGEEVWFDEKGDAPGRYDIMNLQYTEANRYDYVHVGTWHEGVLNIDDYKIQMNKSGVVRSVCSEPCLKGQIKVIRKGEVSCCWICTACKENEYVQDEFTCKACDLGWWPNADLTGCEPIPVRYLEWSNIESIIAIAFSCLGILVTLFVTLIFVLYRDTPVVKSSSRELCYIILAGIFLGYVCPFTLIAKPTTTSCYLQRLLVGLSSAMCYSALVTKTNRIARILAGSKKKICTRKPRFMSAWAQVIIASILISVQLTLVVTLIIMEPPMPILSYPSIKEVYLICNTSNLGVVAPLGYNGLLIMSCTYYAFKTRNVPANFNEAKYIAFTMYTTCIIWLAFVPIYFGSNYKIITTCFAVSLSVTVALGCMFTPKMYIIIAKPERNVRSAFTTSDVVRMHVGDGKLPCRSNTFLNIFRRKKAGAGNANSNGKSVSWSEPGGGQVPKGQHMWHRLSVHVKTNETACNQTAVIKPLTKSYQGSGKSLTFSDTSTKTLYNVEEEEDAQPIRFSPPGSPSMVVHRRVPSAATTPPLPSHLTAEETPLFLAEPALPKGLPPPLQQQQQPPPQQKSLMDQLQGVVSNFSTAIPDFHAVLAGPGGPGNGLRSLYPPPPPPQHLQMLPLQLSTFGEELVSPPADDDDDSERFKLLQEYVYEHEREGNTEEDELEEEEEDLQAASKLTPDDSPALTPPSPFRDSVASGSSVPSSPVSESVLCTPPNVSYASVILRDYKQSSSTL

SMILES | IC50 [nM]
C#CCN(C)c1ccnc2sc3c(=O)n(-c4ccc(Cl)cc4)cnc3c12 [28DX] | < 50
O=c1c2sc3nccc(NC4CC4)c3c2ncn1-c1cccc(Cl)c1 [28CB] | 50 to 150
CCNc1ccnc2sc3c(=O)n(-c4ccncc4)cnc3c12 [28EG] | 150 to 1000
COc1ccnc2sc3c(=O)n(-c4ccc5c(c4)CCO5)cnc3c12 [25F] | 150 to 1000
CCc1ncnc2sc3c(=O)n(-c4ccc(OC)cc4)cnc3c12 [compound 201] | < 50
CNc1c(C2CC2)cnc2sc3c(=O)n(-c4ccc(OC)cc4)cnc3c12 [137E] | < 50
CCNc1ccnc2sc3c(=O)n(-c4ccc(OC)cc4F)cnc3c12 [28BJ] | 50 to 150
C=C(C)CNc1ccnc2sc3c(=O)n(-c4ccc(Cl)cc4)cnc3c12 [28FD] | < 50
COc1ccc(-n2cnc3c(sc4nccc(C(C)C)c43)c2=O)cc1 [29H] | < 50
Cc1ccc(-n2cnc3c(sc4ncnc(NCCCCO)c43)c2=O)cc1 [95DN] | < 50
CCc1ccc(-n2cnc3c(sc4nccc(NC5CC5)c43)c2=O)cc1 [28BT] | 50 to 150
Cc1ccc(-n2cnc3c(sc4nc(C)nc(N)c43)c2=O)cc1 [95ET] | < 50
COc1ccnc2sc3c(=O)n(-c4ccc5c(c4)OCCO5)cnc3c12 [161B] | > 1000
CC(=O)NN(C)c1ccnc2sc3c(=O)n(-c4ccc(C)cc4)cnc3c12 [73I] | 150 to 1000
CC(C)Nc1ccnc2sc3c(=O)n(-c4ccc(F)cc4)cnc3c12 [28GX] | 150 to 1000
CCOC(=O)c1cnc2sc3c(=O)n(-c4ccc(OC)cc4)cnc3c2c1 [144B] | > 1000
O=c1c2sc3ncc(Br)c(NC4CC4)c3c2ncn1-c1ccc(Cl)cc1 [28EI] | 150 to 1000
CNc1ncnc2sc3c(=O)n(-c4ccc(F)cc4)cnc3c12 [95DC] | < 50
CNc1ccnc2sc3c(=O)n(-c4ccc(Cl)cc4)cnc3c12 [compound 193] | < 50
Cc1ccc(-n2cnc3c(sc4nccc(NCCCCO)c43)c2=O)cc1 [28CT] | < 50
C#CCNc1ccnc2sc3c(=O)n(-c4ccc(Cl)cc4)cnc3c12 [28DL] | < 50
COc1ccc(-n2cnc3c(sc4ncc(F)c(N(C)C)c43)c2=O)cc1 [compound 192] | < 50
CN(C)c1cccc2sc3c(=O)n(-c4cccc(F)c4F)cnc3c12 [103O] | > 1000
Cc1ccc(-n2cnc3c(sc4nccc(NCCC(C)O)c43)c2=O)cc1 (stereo not shown) [28CY] | < 50

SMILES | IC50 [nM]
COCCNc1ccnc2sc3c(=O)n(-c4ccc(OC)cc4)cnc3c12 [28DC] | < 50
Cc1ccc(-n2cnc3c(sc4nccc(N5CC(O)C5)c43)c2=O)cc1 [28DH] | 150 to 1000
COc1ccc(Nc2ncnc3sc4c(=O)n(C)cnc4c23)cc1 [95GN] | > 1000
CCN(C)c1ccnc2sc3c(=O)n(-c4ccc5c(c4)OCO5)cnc3c12 [28IE] | < 50
CCNc1ncnc2sc3c(=O)n(-c4ccc(OC)cc4F)cnc3c12 [95BE] | 50 to 150
O=c1c2sc3nccc(NCCCO)c3c2ncn1-c1ccc(Cl)cc1 [28GD] | < 50
CNc1ccnc2sc3c(=O)n(-c4cccc(Cl)c4)cnc3c12 [28CC] | 50 to 150
COc1ccc(-n2cnc3c(sc4nc(Cl)cc(OC)c43)c2=O)cc1 [57B] | > 1000
COc1ccc(-n2cnc3c(sc4nccc(NC5CC5)c43)c2=O)c(C)c1 [131I] | 50 to 150
COCCCNc1ccnc2sc3c(=O)n(-c4ccc(OS(=O)(=O)C(F)(F)F)cc4)cnc3c12 [28HX] | 150 to 1000
O=c1c2sc3nccc(NC4CC4)c3c2ncn1-c1ccc(Br)cc1 [28GY] | < 50
O=c1c2sc3nccc(NCCO)c3c2ncn1-c1ccc(Cl)cc1 [28GB] | < 50
O=c1c2sc3nccc(N4CCCCC4)c3c2ncn1-c1ccc(Cl)cc1 [28GH] | > 1000
C=CCOc1ccnc2sc3c(=O)n(-c4ccc(Br)cc4)cnc3c12 [66J] | < 50
COc1ccc(-n2cnc3c(sc4ncnc(Nc5nccs5)c43)c2=O)cc1 [190D] | 150 to 1000
CN(C)c1ccnc2sc3c(=O)n(-c4ccc(OS(C)(=O)=O)cc4)cnc3c12 [compound 204] | 50 to 150
O=c1c2sc3nccc(NCC4CC4)c3c2ncn1-c1ccc2occc2c1 [28BX] | 150 to 1000
Cc1ccc(-n2cnc3c(sc4nccc(CN(CC5CC5)CC5CC5)c43)c2=O)cc1 [169B] | > 1000
CCN(C)c1ccnc2sc3c(=O)n(-c4cccc(F)c4)cnc3c12 [28CM] | < 50
COc1cc(-n2cnc3c(sc4nccc(NC5CC5)c43)c2=O)ccc1F [131N] | 150 to 1000
CNc1ccnc2sc3c(=O)n(-c4ccc(F)cc4)cnc3c12 [28IB] | < 50
Cc1ccc(-n2cnc3c(sc4ncnc(Nc5ccccc5)c43)c2=O)cc1F [95GB] | > 1000
Cc1nc(N)c2c(n1)sc1c(=O)n(-c3ccccc3)cnc12 [95EX] | < 50

Same assay, conditions: against Quisqualate 1 μM (EC80), FLIPR calcium mobilization, read-out: mGluR1 IC50

SMILES | IC50 [nM]
CN(C)c1ccnc2sc3c(=O)n(-c4ccc5sccc5c4)cnc3c12 [7BM] | 1.48
CNc1ccnc2sc3c(=O)n(-c4ccc(Cl)cc4)cnc3c12 [compound 193] | 0.18
C#CCNc1ccnc2sc3c(=O)n(-c4ccc(Cl)cc4)cnc3c12 [28DL] | 0.91
O=c1c2sc3nccc(NCCCO)c3c2ncn1-c1ccc(Cl)cc1 [28GD] | 0.77
CN(C)c1ccnc2sc3c(=O)n(-c4ccc5c(c4)OCCO5)cnc3c12 [7AC] | 1.84

Same assay, conditions: against Quisqualate 1 μM (EC80), class symbols, read-out: mGIuR 1 IC50

SMILES | IC50 [nM]
CN(C)c1ncnc2sc3c(=O)n(-c4ccc(OC(F)F)cc4)cnc3c12 [95Q] | < 50
Cc1cc(-n2cnc3c(sc4nccc(N(C)C)c43)c2=O)ccc1I [7EA] | < 50
CN(C)c1cncc2sc3c(=O)n(C4CCCCC4)cnc3c12 [37A] | 150 to 1000
O=c1c2sc3nccc(NC4CC4)c3c2ncn1C1CCCCC1 [28S] | < 50
Cc1ccc(-n2cnc3c(sc4ncnc(N(C)C)c43)c2=O)cn1 [95O] | < 50
COc1ccc(-n2cnc3c(sc4nccc(N(C)C)c43)c2=O)c(F)c1 [7DK] | < 50
Cc1nc2c(sc3nccc(N(C)C)c32)c(=O)n1-c1ccccc1 [113B] | < 50
CN(C)c1ccnc2sc3c(=O)n(-c4cccs4)cnc3c12 [15AB] | < 50
CCNc1ccnc2sc3c(=O)n(-c4ccc(S)c(NC=O)c4)cnc3c12 [131G] | < 50
CN(C)c1ccc(F)c2sc3c(=O)n(C4CCCCC4)cnc3c12 [compound 104] | > 1000
CNc1ccnc2sc3c(=O)n(-c4ccc(C)cc4)c(C)nc3c12 [113G] | < 50
CN(C)c1ccnc2sc3c(=O)n(-c4ccc(C(F)(F)F)cc4)cnc3c12 [7DO] | < 50
CN(C)c1ccnc2sc3c(=O)n(-c4ccc5sccc5c4)cnc3c12 [7BM] | < 50
CN(C)c1ccnc2sc3c(=O)n(C4CCOCC4)cnc3c12 [15E] | 50 to 150
CNc1ccnc2sc3c(=O)n(-c4ccc(OC)c(F)c4)cnc3c12 [7CA] | < 50
O=c1c2sc3nccc(NCC4CC4)c3c2ncn1C1CCCCC1 [28AJ] | 150 to 1000
C=CCNc1ccnc2sc3c(=O)n(-c4ccc(C)cc4)cnc3c12 [72I] | < 50
COc1ccc(-n2cnc3c(sc4nccc(N(C)C)c43)c2=O)cc1Cl [7T] | 50 to 150
COC(=O)c1sccc1-n1cnc2c(sc3nccc(N(C)C)c32)c1=O [7AU] | > 1000
Cc1ccc(-n2cnc3c(sc4nccc(NC[C@H](C)O)c43)c2=O)cc1 [28BB] | < 50
CN(C)c1ccnc2sc3c(=O)n(-c4ccc(O)c(F)c4)cnc3c12 [7CT] | < 50
CCNc1ccnc2sc3c(=O)n(-c4ccc5ncsc5c4)cnc3c12 [131C] | < 50
CN(C)c1ccnc2sc3c(=O)n(-c4ccc(CC#N)cc4)cnc3c12 [7BC] | > 1000
C=CCn1cnc2c(sc3nccc(N(C)C)c32)c1=O [7AB] | 150 to 1000

SMILES | IC50 [nM]
O=c1c2sc3nccc(N4CCOCC4)c3c2ncn1C1CCCCC1 [28O] | > 1000
Nc1ccnc2sc3c(=O)n(C4CCCCC4)cnc3c12 [72A] | < 50
CCNc1ncnc2sc3c(=O)n(-c4ccc5c(c4)CCO5)cnc3c12 [95AC] | < 50
CCNc1ccnc2sc3c(=O)n(-c4ccccc4)c(C)nc3c12 [113F] | < 50
CN(C)c1ccnc2sc3c(=O)n(-c4ccccn4)cnc3c12 [7U] | 50 to 150
CCN(C)c1ccnc2sc3c(=O)n(C4CCCCC4)cnc3c12 [28Y] | < 50
COc1ccc(-n2cnc3c(sc4ncc(Br)c(N(C)C)c43)c2=O)cc1Br [compound 149] | > 1000
CN(C)c1ccnc2sc3c(=O)n(-c4ccc(Cl)cc4I)cnc3c12 [7N] | 150 to 1000
CCNc1ncnc2sc3c(=O)n(-c4ccc(OC(F)F)cc4)cnc3c12 [95W] | < 50
CCN(CC)c1ccnc2sc3c(=O)n(-c4ccc(OC)cc4)cnc3c12 [28AQ] | 50 to 150
Cc1ccc(-n2cnc3c(sc4nccc(N(C)C)c43)c2=O)cc1C [7CV] | < 50
CN(C)c1ccnc2sc3c(=O)n(-c4ccc5c(c4)OCCCO5)cnc3c12 [7CH] | 150 to 1000
CN(C)c1ccnc2sc3c(=O)n(-c4ccc5nsnc5c4)cnc3c12 [7BN] | < 50
Cc1ccc(-n2cnc3c(sc4nccc(N(C)C)c43)c2=O)cc1C#N [7DP] | 50 to 150
CN(C)c1ccnc2sc3c(=O)n(C4CCNCC4)cnc3c12 [15G] | > 1000
CN(C)c1ccnc2sc3c(=O)n(C4CCCCCCC4)cnc3c12 [15Q] | < 50
Cc1ccc(-n2cnc3c(sc4ncc(N)cc43)c2=O)cc1 [147A] | 150 to 1000
COc1ccc(-n2cnc3c(sc4nccc(N(C)C)c43)c2=O)cn1 [7BW] | < 50
CN(C)c1ccnc2sc3c(=O)n(CCN4CCOCC4)cnc3c12 [15N] | > 1000
Cc1cc(N(C)C)c2c(n1)sc1c(=O)n(-c3ccccc3)cnc12 [7DB] | < 50
CN(C)c1ccnc2sc3c(=O)n(-c4ccc5c(c4)OCCO5)cnc3c12 [7AC] | < 50
CCC(=O)Nc1ccnc2sc3c(=O)n(C4CCCCC4)cnc3c12 [73A] | > 1000
CN(C)c1cncc2sc3c(=O)n(-c4ccc(Cl)cc4)cnc3c12 [37E] | < 50
COc1ccc(-n2cnc3c(sc4nccnc43)c2=O)cc1 [compound 40] | > 1000
